Laboratory results from patent US9085603B2, “Progesterone receptor antagonists” (Bayer Intellectual Property GmbH, priority 2010, dated 2015).

target: T1, human progesterone receptor A (Homo sapiens, UniProt P06401); test: Progesterone receptor antagonistic effect in stably transfected SK-N-MC cells, MTV-LUC reporter (PR-A); assay type: cell-based; conditions: antagonism of 0.1 nmol/l promegestone, luciferase reporter, 24 hours
T1 construct: expressed in transfected cells; host or cells: SK-N-MC human neuroblastoma cells, stably transfected with pRChPR-A-neo and pMMTV-LUC
T1 sequence (P06401 1-769 isoform P06401-2): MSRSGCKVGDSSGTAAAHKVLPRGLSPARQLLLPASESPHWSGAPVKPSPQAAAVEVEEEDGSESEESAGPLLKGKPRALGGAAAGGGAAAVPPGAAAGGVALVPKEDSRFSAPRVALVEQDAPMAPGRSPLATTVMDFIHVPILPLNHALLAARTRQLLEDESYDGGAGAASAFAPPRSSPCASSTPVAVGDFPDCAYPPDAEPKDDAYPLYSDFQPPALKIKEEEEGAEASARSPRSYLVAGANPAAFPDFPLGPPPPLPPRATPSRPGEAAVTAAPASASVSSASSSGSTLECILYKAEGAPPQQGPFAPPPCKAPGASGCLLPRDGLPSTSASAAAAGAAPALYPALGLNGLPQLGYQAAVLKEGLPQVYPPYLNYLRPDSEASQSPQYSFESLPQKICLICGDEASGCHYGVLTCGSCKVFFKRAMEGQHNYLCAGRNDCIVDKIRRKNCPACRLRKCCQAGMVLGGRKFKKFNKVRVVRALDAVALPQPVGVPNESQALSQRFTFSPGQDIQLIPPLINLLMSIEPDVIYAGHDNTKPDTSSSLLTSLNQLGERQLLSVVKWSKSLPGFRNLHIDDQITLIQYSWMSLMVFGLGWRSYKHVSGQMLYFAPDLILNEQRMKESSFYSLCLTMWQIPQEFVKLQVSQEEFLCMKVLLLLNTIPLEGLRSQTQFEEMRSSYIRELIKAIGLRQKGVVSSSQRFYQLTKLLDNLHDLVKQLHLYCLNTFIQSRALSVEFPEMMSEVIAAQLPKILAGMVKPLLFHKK
Description: Progesterone Receptor Antagonistic Effect in Stable Transfectants of Human Neuroblastoma Cells (SK-N-MC cells) with the Human Progesterone A or Progesterone B Receptor and a MTV-LUC Reporter Construct
SK-N-MC cells (human neuroblastoma cells), which have been stably transfected with plasmids which express the human progesterone receptor B (pRChPR-B-neo) or the human progesterone receptor A (pRChPR-A-neo) and a reporter construct (pMMTV-LUC), were incubated for 24 hours either in the absence (negative control) or in the presence of increasing amounts of the particular test compound (0.01 nmol/l, 0.1 nmol/l, 1 nmol/l, 10 nmol/l, 100 nmol/l and 1 μmol/l) in order to determine the agonistic efficacy. As a positive control of the reporter gene induction, the cells were treated with the synthetic gestagen promegestone (0.01 nmol/l, 0.1 nmol/l, 1 nmol/l, 10 nmol/l, 100 nmol/l and 1 μmol/l). To determine the antagonistic activity, the cells were treated with 0.1 nmol/l of promegestone and additionally with increasing amounts of the particular test compound (0.01 nmol/l, 0.1 nmol/l, 1 nmol/l, 10 nmol/l, 100 nmol/l and 1 μmol/l). The activity of the reporter gene LUC (LUC=luciferase) was determined in the cell lysates and measured as RLU (relative light units). All measurement values are given as percentage efficacy and as EC50 or IC50 concentrations.

| IC50 [nM] | SMILES |
| --- | --- |
| 0.51 | C[C@]12C[C@H](c3ccc(CNc4ccc(S(N)(=O)=O)cc4)cc3)C3=C4CCC(=O)C=C4CC[C@H]3[C@@H]1CC[C@@]2(O)C(F)(F)C(F)(F)F [Example 18, 4-({4-[(11β,17β)-17-Hydroxy-3-oxo-17-(pentafluoroethyl)estra-4,9-dien-11-yl]benzyl}amino)benzenesulphonamide] |
| 0.94 | C[C@]12C[C@H](c3ccc(CNc4cccnc4)cc3)C3=C4CCC(=O)C=C4CC[C@H]3[C@@H]1CC[C@@]2(O)C(F)(F)C(F)(F)F [Example 19, (11β,17β)-17-Hydroxy-17-(pentafluoroethyl)-11-{4-[(pyridin-3-ylamino)methyl]phenyl}estra-4,9-dien-3-one] |
| 1.64 | C[C@]12C[C@H](c3ccc(CNc4ccccc4)cc3)C3=C4CCC(=O)C=C4CCC3C1CC[C@@]2(O)C(F)(F)C(F)(F)F (stereo partly drawn) [Example 20, (11β,17β)-11-[4-(Anilinomethyl)phenyl]-17-hydroxy-17-(pentafluoroethyl)estra-4,9-dien-3-one] |
| 6.06 | COc1ccccc1NCc1ccc([C@H]2C[C@@]3(C)[C@@H](CC[C@@]3(O)C(F)(F)C(F)(F)F)[C@@H]3CCC4=CC(=O)CCC4=C32)cc1 [Example 21, (11β,17β)-17-Hydroxy-11-(4-{[(2-methoxyphenyl)amino]methyl}phenyl)-17-(pentafluoroethyl)estra-4,9-dien-3-one] |
| 2.52 | COc1cccc(NCc2ccc([C@H]3C[C@@]4(C)[C@@H](CC[C@@]4(O)C(F)(F)C(F)(F)F)[C@@H]4CCC5=CC(=O)CCC5=C43)cc2)c1 [Example 22, (11β,17β)-17-Hydroxy-11-(4-{[(3-methoxyphenyl)amino]methyl}phenyl)-17-(pentafluoroethyl)estra-4,9-dien-3-one] |
| 2.07 | C[C@]12C[C@H](c3ccc(CNc4ccc(Cl)cc4)cc3)C3=C4CCC(=O)C=C4CCC3C1CC[C@@]2(O)C(F)(F)C(F)(F)F (stereo partly drawn) [Example 23, (11β,17β)-11-(4-{[(4-Chlorophenyl)amino]methyl}phenyl)-17-hydroxy-17-(pentafluoroethyl)estra-4,9-dien-3-one] |
| 51 | CCN(CC)Cc1ccc([C@H]2C[C@@]3(C)C(CC[C@@]3(O)C(F)(F)C(F)(F)F)C3CCC4=CC(=O)CCC4=C32)cc1 (stereo partly drawn) [Example 24, (11β,17β)-11-{4-[(Diethylamino)methyl]phenyl}-17-hydroxy-17-(pentafluoroethyl)estra-4,9-dien-3-one] |
| 3.06 | C[C@]12C[C@H](c3ccc(CN4CCN(c5ccccc5)CC4)cc3)C3=C4CCC(=O)C=C4CC[C@H]3[C@@H]1CC[C@@]2(O)C(F)(F)C(F)(F)F [Example 25, (11β,17β)-17-Hydroxy-17-(pentafluoroethyl)-11-{4-[(4-phenylpiperazin-1-yl)methyl]phenyl}estra-4,9-dien-3-one] |
| 4.65 | CN(Cc1ccncc1)Cc1ccc([C@H]2C[C@@]3(C)[C@@H](CC[C@@]3(O)C(F)(F)C(F)(F)F)[C@@H]3CCC4=CC(=O)CCC4=C32)cc1 [Example 26, (11β,17β)-17-Hydroxy-11-(4-{[methyl(pyridin-4-ylmethyl)amino]methyl}phenyl)-17-(pentafluoroethyl)estra-4,9-dien-3-one] |
| 3.52 | CN(C)CCN(C)Cc1ccc([C@H]2C[C@@]3(C)C(CC[C@@]3(O)C(F)(F)C(F)(F)F)C3CCC4=CC(=O)CCC4=C32)cc1 (stereo partly drawn) [Example 27, (11β,17β)-11-[4-({[2-(Dimethylamino)ethyl](methyl)amino}methyl)phenyl]-17-hydroxy-17-(pentafluoroethyl)estra-4,9-dien-3-one] |
| 5.05 | COC(=O)c1ccccc1NCc1ccc([C@H]2C[C@@]3(C)[C@@H](CC[C@@]3(O)C(F)(F)C(F)(F)F)[C@@H]3CCC4=CC(=O)CCC4=C32)cc1 [Example 28, Methyl 2-({4-[(11β,17β)-17-hydroxy-3-oxo-17-(pentafluoroethyl)estra-4,9-dien-11-yl]benzyl}amino)benzoate] |
| 1.19 | COC(=O)c1ccc(NCc2ccc([C@H]3C[C@@]4(C)[C@@H](CC[C@@]4(O)C(F)(F)C(F)(F)F)[C@@H]4CCC5=CC(=O)CCC5=C43)cc2)cc1 [Example 29, Methyl 4-({4-[(11β,17β)-17-hydroxy-3-oxo-17-(pentafluoroethyl)estra-4,9-dien-11-yl]benzyl}amino)benzoate] |
| 2.35 | C[C@]12C[C@H](c3ccc(CN4CCc5ccccc5C4)cc3)C3=C4CCC(=O)C=C4CCC3C1CC[C@@]2(O)C(F)(F)C(F)(F)F (stereo partly drawn) [Example 30, (11β,17β)-11-[4-(3,4-Dihydroisoquinolin-2(1H)-ylmethyl)phenyl]-17-hydroxy-17-(pentafluoroethyl)estra-4,9-dien-3-one] |
| 4.52 | C[C@]12C[C@H](c3ccc(CN4CCN(Cc5ccccc5)CC4)cc3)C3=C4CCC(=O)C=C4CCC3C1CC[C@@]2(O)C(F)(F)C(F)(F)F (stereo partly drawn) [Example 31, (11β,17β)-11-{4-[(4-Benzylpiperazin-1-yl)methyl]phenyl}-17-hydroxy-17-(pentafluoroethyl)estra-4,9-dien-3-one] |
| 0.78 | C[C@]12C[C@H](c3ccc(CNc4ccc(C(N)=O)cc4)cc3)C3=C4CCC(=O)C=C4CC[C@H]3[C@@H]1CC[C@@]2(O)C(F)(F)C(F)(F)F [Example 32, 4-({4-[(11β,17β)-17-Hydroxy-3-oxo-17-(pentafluoroethyl)estra-4,9-dien-11-yl]benzyl}amino)benzamide] |
| 5.57 | CN(CCc1ccccc1)Cc1ccc([C@H]2C[C@@]3(C)[C@@H](CC[C@@]3(O)C(F)(F)C(F)(F)F)[C@@H]3CCC4=CC(=O)CCC4=C32)cc1 [Example 33, (11β,17β)-17-Hydroxy-11-(4-{[methyl(2-phenylethyl)amino]methyl}phenyl)-17-(pentafluoroethyl)estra-4,9-dien-3-one] |
| 5.55 | C[C@]12C[C@H](c3ccc(CN4CCN(CCc5ccccc5)CC4)cc3)C3=C4CCC(=O)C=C4CC[C@H]3[C@@H]1CC[C@@]2(O)C(F)(F)C(F)(F)F [Example 34, (11β,17β)-17-Hydroxy-17-(pentafluoroethyl)-11-(4-{[4-(2-phenylethyl)piperazin-1-yl]methyl}phenyl)estra-4,9-dien-3-one] |
| 0.68 | C[C@]12C[C@H](c3ccc(CN4CCN(c5cnccn5)CC4)cc3)C3=C4CCC(=O)C=C4CC[C@H]3[C@@H]1CC[C@@]2(O)C(F)(F)C(F)(F)F [Example 35, (11β,17β)-17-Hydroxy-17-(pentafluoroethyl)-11-(4-{[4-(pyrazin-2-yl)piperazin-1-yl]methyl}phenyl)estra-4,9-dien-3-one] |
| 33.7 | C[C@]12C[C@H](c3ccc(CN4CCN(CCN5CCCC5)CC4)cc3)C3=C4CCC(=O)C=C4CC[C@H]3[C@@H]1CC[C@@]2(O)C(F)(F)C(F)(F)F [Example 36, (11β,17β)-17-Hydroxy-17-(pentafluoroethyl)-11-[4-({4-[2-(pyrrolidin-1-yl)ethyl]piperazin-1-yl}methyl)phenyl]estra-4,9-dien-3-one] |
| 2.33 | C[C@]12C[C@H](c3ccc(CN4CCN(Cc5ccncc5)CC4)cc3)C3=C4CCC(=O)C=C4CC[C@H]3[C@@H]1CC[C@@]2(O)C(F)(F)C(F)(F)F [Example 37, (11β,17β)-17-Hydroxy-17-(pentafluoroethyl)-11-(4-{[4-(pyridin-4-ylmethyl)piperazin-1-yl]methyl}phenyl)estra-4,9-dien-3-one] |
| 0.66 | CC(=O)Nc1ccc(NCc2ccc([C@H]3C[C@@]4(C)[C@@H](CC[C@@]4(O)C(F)(F)C(F)(F)F)[C@@H]4CCC5=CC(=O)CCC5=C43)cc2)cc1 [Example 38, N-[4-({4-[(11β,17β)-17-Hydroxy-3-oxo-17-(pentafluoroethyl)estra-4,9-dien-11-yl]benzyl}amino)phenyl]acetamide] |
| 1.77 | COC(=O)c1cccc(NCc2ccc([C@H]3C[C@@]4(C)[C@@H](CC[C@@]4(O)C(F)(F)C(F)(F)F)[C@@H]4CCC5=CC(=O)CCC5=C43)cc2)c1 [Example 39, Methyl 3-({4-[(11β,17β)-17-hydroxy-3-oxo-17-(pentafluoroethyl)estra-4,9-dien-11-yl]benzyl}amino)benzoate] |
